# Measurements from patent publication US20100029615A1, “BENZIMIDAZOLE DERIVATIVES” (priority 2006, published 2010).
# Counter-ions that a name gives are not always drawn.
# Molecular target: T1, SMO (Mus musculus, UniProt P56726)
# T1 construct: endogenous in cells; host or cells: C3H10T1/2 (ATCC #CCL-226)
# Test: Smoothened (SMO)/Sonic Hedgehog (SHh) Transient Transcriptional Activation Assay (Gli-luciferase reporter in C3H10T1/2 cells)
# Format: cell-based, murine
# Conditions: 2 μM test compound, SHh 250 ng/ml, 20 hrs, 2 µM
# Outline: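 C3H10T1/2 cells transiently transfected with a 10× murine Gli-responsive firefly luciferase reporter plus pEGFP, serum-starved 20 h in 0.5% calf serum, then treated with compounds (2 uM–2 nM final) and 250 ng/ml recombinant human SHh for 20 h at 37 °C. Read-out: Dual-Glo luminescence.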
# T1 sequence (P56726 33-793): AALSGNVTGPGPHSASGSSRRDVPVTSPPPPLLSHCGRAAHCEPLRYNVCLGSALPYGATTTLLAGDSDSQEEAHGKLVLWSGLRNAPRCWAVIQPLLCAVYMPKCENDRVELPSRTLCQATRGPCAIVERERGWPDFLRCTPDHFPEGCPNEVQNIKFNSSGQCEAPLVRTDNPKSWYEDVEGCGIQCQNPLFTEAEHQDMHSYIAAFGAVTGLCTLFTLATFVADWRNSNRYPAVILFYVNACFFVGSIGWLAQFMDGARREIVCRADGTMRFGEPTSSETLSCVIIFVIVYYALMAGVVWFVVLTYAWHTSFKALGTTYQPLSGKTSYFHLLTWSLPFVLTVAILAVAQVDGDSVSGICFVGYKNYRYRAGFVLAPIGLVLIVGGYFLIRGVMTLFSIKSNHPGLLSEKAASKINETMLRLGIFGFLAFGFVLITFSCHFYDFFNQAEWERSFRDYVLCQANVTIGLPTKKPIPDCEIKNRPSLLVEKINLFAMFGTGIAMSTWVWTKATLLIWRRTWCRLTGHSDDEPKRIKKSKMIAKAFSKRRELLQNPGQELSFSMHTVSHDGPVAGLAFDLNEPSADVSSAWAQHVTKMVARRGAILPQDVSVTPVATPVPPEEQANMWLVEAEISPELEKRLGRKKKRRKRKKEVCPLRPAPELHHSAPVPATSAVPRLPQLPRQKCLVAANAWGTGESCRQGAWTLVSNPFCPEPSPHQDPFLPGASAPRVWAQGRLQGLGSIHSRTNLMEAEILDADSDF
row,SMO CELL % INHIBITION @ 2 μM,Compound
1,107.2%,"COc1cc(OC)cc(C(=O)N[C@@H]2CCC[C@H](c3nc4ccc(C(F)(F)F)cc4[nH]3)C2)c1 [Example 171, 3,5-dimethoxy-N-{(1R,3S)-3-[6-(trifluoromethyl)-1H-benzimidazol-2-yl]cyclohexyl} benzamide (+)-tartrate]"

# Same assay, conditions: 2 μM test compound, SHh 250 ng/ml, 20 hrs, HCl, 2 µM
row,SMO CELL % INHIBITION @ 2 μM,Compound
1,101.34%,"COc1cc(OC)cc(C(=O)NC23CCCC(c4nc5cc(C(F)(F)F)ccc5[nH]4)(C2)C3)c1 [Example 260, 3,5-dimethoxy-N-{5-[5-(trifluoromethyl)-1H-benzimidazol-2-yl]bicyclo[3.1.1]hept-1-yl}benzamide HCl]"
2,94.31%,"O=C(NC12CCCC(c3nc4cc(C(F)(F)F)ccc4[nH]3)(C1)C2)c1cc2c(cn1)OCCO2 [Example 264, N-{5-[5-(trifluoromethyl)-1H-benzimidazol-2-yl]bicyclo[3.1.1]hept-1-yl}-2,3-dihydro[1,4]di-oxino[2,3-c]pyridine-7-carboxamide HCl]"

# Same assay, conditions: C3H 10T1/2, 2 uM test compound, SHh 250 ng/ml, 20 hrs, read-out: SMO % inhibition at 2 uM
row,inhibition at 2 µM,Compound
1,70%,"CNC(=O)c1ccc2nc([C@H]3CCC[C@@H](NC(=O)c4cc(OC)cc(OC)c4)C3)[nH]c2c1 [Example 7, 2-(3-[3,5-dimethoxybenzamido)cyclohexyl)-N-methyl-1H-benzo[d]imidazole-5-carboxamide]"
2,59%,"COCCn1c(C2CCCC(NC(=O)c3ccc4c(c3)OCCO4)C2)nc2ccccc21 (stereo not drawn) [Example 16, N-(3-(1-(2-Methoxyethyl)-1H-benzo[d]imidazol-2-yl]cyclohexyl)-2,3-dihydrobenzo[b][1,4]dioxine-6-carboxamide]"

# Same assay, conditions: C3H 10T1/2, 2 μM test compound, SHh 250 ng/ml, 20 hrs, read-out: SMO CELL % INHIBITION @ 2 μM
row,inhibition at 2 µM,Compound
1,103%,"O=C(C[C@H]1C[C@H]2C=C[C@@H]1C2)NC1CCCC(c2nc3ccccc3[nH]2)C1 (stereo partly drawn) [Example 125, N-[3-(1H-benzimidazol-2-yl)cyclohexyl]-2-[(1S,2S,4S)-bicyclo[2.2.1]hept-5-en-2-yl]acetamide triflouroacetate]"
2,110%,"Cc1cc2c(cc1C(=O)NC13CCCC(c4nc5cc(C(F)(F)F)ccc5[nH]4)(C1)C3)OCCO2 [Example 306, 7-methyl-N-{5-[5-(trifluoromethyl)-1H-benzimidazol-2-yl]bicyclo[3.1.1]hept-1-yl}-2,3-dihydro-1,4-benzodioxine-6-carboxamide]"
3,106%,"CN1C(=O)COc2ccc(C(=O)N[C@@H]3CCC[C@H](c4nc5ccccc5n4C)C3)cc21 [Example 297, 4-methyl-N-[(1R,3S)-3-(1-methyl-1H-benzimidazol-2-yl)cyclohexyl]-3-oxo-3,4-dihydro-2H-1,4-benzoxazine-6-carboxamide (+)-tartrate]"
4,106%,"O=C1CCc2cc(C(=O)N[C@@H]3CCC[C@H](c4nc5cc(Cl)ccc5[nH]4)C3)ccc2N1 [Example 300, N-[(1R,3S)-3-(5-chloro-1H-benzimidazol-2-yl)cyclohexyl]-2-oxo-1,2,3,4-tetrahydroquino-line-6-carboxamide (+)-tartrate]"
5,49%,"COc1cc(OC)cc(C(=O)NC23CCCC(c4nc5ccccc5n4C)(C2)C3)c1 [Example 245, 3,5-dimethoxy-N-(5-(1-methyl-1H-benzo[d]imidaz-ol-2-yl)bicyclo[3.1.1]heptan-1-yl)benzamide]"
6,61%,"COc1ccc2oc(C(=O)N[C@@H]3CCC[C@H](c4nc5ccccc5[nH]4)C3)cc2c1 [Example 184, N-[(1R,3S)-3-(1H-benzimidazol-2-yl)cyclohexyl]-5-methoxy-1-benzofuran-2-carboxamide triflouroacetate]"
7,53%,"O=C(N[C@@H]1CCC[C@H](c2nc3ccccc3[nH]2)C1)C1=Cc2ccccc2OC1 [Example 193, N-[(1R,3S)-3-(1H-benzimidazol-2-yl)cyclohexyl]-2H-chromene-3-carboxamide triflouroacetate]"
8,115%,"O=C(Nc1cc(Cl)cc(Cl)c1)N[C@@H]1CCC[C@H](c2nc3ccccc3[nH]2)C1 [Example 227, 1-[(1R,3S)-3-(1H-benzimidazol-2-yl)cyclohexyl]-3-(3,5-dichlorophenyl) urea]"
9,104%,"S=C(N[C@@H]1CCC[C@H](c2nc3ccccc3[nH]2)C1)c1ccc2c(c1)OCCO2 [Example 75, N-((1R,3S)-3-(1H-benzo[d]imidazol-2-yl)cyclohexyl)-2,3-dihydrobenzo[b] [1,4]dioxine-6-carbothioamide HCl]"
10,54%,"O=C(N[C@@H]1CCC[C@H](c2nc3ccccc3[nH]2)C1)c1c[nH]c2ccccc12 [Example 205, N-[(1R,3S)-3-(1H-benzimidazol-2-yl)cyclohexyl]-1H-indole-3-carboxamide triflouroacetate]"
11,83%,"COc1cc(OC)cc(C(=O)NC2CCCC(c3nc4ccc(F)cc4[nH]3)C2)c1 (stereo not drawn) [Example 70, N-[3-(6-fluoro-1H-benzimidazol-2-yl)cyclohexyl]-3,5-dimethoxybenz-amide]"
12,86%,"O=C(N[C@@H]1CCC[C@H](c2nc3ccccc3[nH]2)C1)c1ccc2c(n1)OCCO2 [Example 242, N-((1R,3S)-3-(1H-benzo[d]imidaz-ol-2-yl)cyclohexyl)-2,3-dihydro-[1,4]dioxino[2,3-b]pyridine-6-carboxamide]"
13,107%,"N#Cc1ccc(NC(=O)NC23CCCC(c4nc5cc(Cl)ccc5[nH]4)(C2)C3)cc1 [Example 270, 1-[5-(5-chloro-1H-benzimidazol-2-yl)bicyclo[3.1.1]hept-1-yl]-3-(4-cyanophenyl) urea]"
14,70%,"O=C(N[C@@H]1CCC[C@H](c2nc3ccccc3[nH]2)C1)C1COc2ccccc2O1 (stereo partly drawn) [Example 196, N-[(1R,3S)-3-(1H-benzimidazol-2-yl)cyclohexyl]-2,3-dihydro-1,4-benzodioxine-2-carboxamide triflouroacetate]"
15,107%,"O=C(N[C@@H]1CCC[C@H](c2nc3cc(C(F)(F)F)ccc3[nH]2)C1)c1ccc2c(c1)CCNC2 [Example 287, N-{(1R,3S)-3-[5-(trifluoromethyl)-1H-benzimidazol-2-yl]cyclohexyl}-1,2,3,4-tetrahydroisoquino-line-6-carboxamide HCl]"
16,57%,"O=C(N[C@@H]1CCC[C@H](c2nc3ccccc3[nH]2)C1)c1nc2ccccc2[nH]1 [Example 176, N-[(1R,3S)-3-(1H-benzimidazol-2-yl)cyclohexyl]-1H-benzimidazole-2-carboxamide HCl]"
17,107%,"CC(=O)c1c(C)[nH]c(C(=O)NC2CCCC(c3nc4ccccc4[nH]3)C2)c1C (stereo not drawn) [Example 99, 4-acetyl-N-[3-(1H-benzimidazol-2-yl)cyclohexyl]-3,5-dimethyl-1H-pyrrole-2-carboxamide triflouroacetate]"
18,100%,"O=C(CN1C[C@@H]2CC[C@H]1C2)NC1CCCC(c2nc3ccccc3[nH]2)C1 (stereo partly drawn) [Example 138, 2-[(1S,4R)-2-azabicyclo[2.2.1]hept-2-yl]-N-[3-(1H-benzimidazol-2-yl)cyclohexyl]-acetamide triflouroacetate]"
19,81%,"O=C1CCc2cc(C(=O)N[C@@H]3CCC[C@H](c4nc5ccccc5[nH]4)C3)ccc2N1 [Example 220, N-[(1R,3S)-3-(1H-benzimidazol-2-yl)cyclohexyl]-2-oxo-1,2,3,4-tetrahydroquin-oline-6-carboxamide triflouroacetate]"
20,105%,"COc1cc(C(=O)NC2CCCC(c3nc4ccccc4[nH]3)C2)cc2c1OCCO2 (stereo not drawn) [Example 139, N-[3-(1H-benzimidazol-2-yl)cyclohexyl]-8-methoxy-2,3-dihydro-1,4-benzodioxine-6-carboxamide triflouroacetate]"
21,107%,"O=C(N[C@@H]1CCC[C@H](c2nc3ccccc3[nH]2)C1)[C@H]1CCc2ccccc2O1 [Example 207, (2R)-N-[(1R,3S)-3-(1H-benzimidazol-2-yl)cyclohexyl]-chromane-2-carboxamide triflouroacetate]"
22,100%,"CCc1c(C(=O)N[C@@H]2CCC[C@H](c3nc4ccccc4[nH]3)C2)[nH]c2ccccc12 [Example 214, N-[(1R,3S)-3-(1H-benzimidazol-2-yl)cyclohexyl]-3-ethyl-1H-indole-2-carboxamide triflouroacetate]"
23,91%,"O=C(NC12CCCC(c3nc4ccccc4[nH]3)(C1)C2)c1ccc2c(c1)OCCO2 [Example 87, N-[5-(1H-benzimidazol-2-yl)bicyclo[3.1.1]hept-1-yl]-2,3-dihydro-1,4-benzodioxine-6-carboxamide]"
24,108%,"CC(C)c1ccc(NC(=O)N[C@@H]2CCC[C@H](c3nc4ccccc4[nH]3)C2)cc1 [Example 236, 1-[(1R,3S)-3-(1H-benzimidazol-2-yl)cyclohexyl]-3-(4-isopropylphenyl) urea]"
25,48%,"CCc1ccc2nc(C(=O)N[C@@H]3CCC[C@H](c4nc5ccccc5[nH]4)C3)cn2c1 [Example 221, N-[(1R,3S)-3-(1H-benzimidazol-2-yl)cyclohexyl]-6-ethylimidazo[1,2-a]pyridine-2-carboxamide triflouroacetate]"
26,112%,"CN1C(=O)COc2ccc(C(=O)N[C@@H]3CCC[C@H](c4nc5cc(C(F)(F)F)ccc5[nH]4)C3)cc21 [Example 280, 4-methyl-3-oxo-N-{(1R,3S)-3-[5-(trifluoromethyl)-1H-benzimidazol-2-yl]cyclohexyl}-3,4-dihydro-2H-1,4-benzoxazine-6-carboxamide HCl]"
27,97%,"COc1ncccc1C(=O)NC1CCCC(c2nc3ccccc3[nH]2)C1 (stereo not drawn) [Example 109, N-[3-(1H-benzimidazol-2-yl)cyclohexyl]-2-methoxynico-tinamide triflouroacetate]"
28,103%,"Cc1cc2nc(C3CCCC(NC(=O)c4ccc5c(c4)OCCO5)C3)[nH]c2cc1C (stereo not drawn) [Example 80, N-[3-(5,6-dimethyl-1H-benzimidazol-2-yl)cyclohexyl]-2,3-dihydro-1,4-benzodioxine-6-carboxamide HCl]"
